In patent publication US20160257697A1, “THIOPHENE-SUBSTITUTED TETRACYCLIC COMPOUNDS AND METHODS OFUSE THEREOF FOR THE TREATMENT OF VIRAL DISEASES” (priority 2013, published 2016):
Read-outs that look alike come from different tables or passages of the source.

Tests used:
Test in all cases: microbe, parasite or virus in culture
Assay type in all cases: cell-based, Hepatitis C virus (HCV)
[1] = test system: HCV replicon 2B
How it was run: (§1)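 Compound is added to replicon cells plated at 2000 cells/well (0.5% DMSO, 5% FBS). After 3 days the cells are washed and lysed, and HCV RNA and cyclophilin mRNA are quantified by multiplex RT-PCR against a standard curve of known replicon total RNA.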

[2] = test system: HCV replicon 1A; conditions: Replicon Assay A
How it was run: as §1

[3] = test system: HCV replicon 1AY93H
How it was run: as §1

[4] = read-out: 2B IC50; replicon 2B; Replicon Assay A
[5] = read-out: 1A Y93H IC50; replicon 1AY93H; Replicon Assay A
[6] = read-out: 2B IC50; HCV replicon 2B; Replicon Assay A
[7] = read-out: 1A Y93H IC50; HCV replicon 1A Y93H; Replicon Assay A
[8] = Hepatitis C virus, HCV replicon 1A

## COC(=O)NC(C(=O)N1CCC[C@H]1c1ncc(-c2ccc3c(c2)cc2n3C(c3ccc(C4CC4)s3)Oc3cc(-c4cnc([C@@H]5CCCN5C(=O)[C@@H](NC(=O)OC)C(C)C)[nH]4)cc(F)c3-2)[nH]1)C1C[C@@H](C)O[C@H](C)C1 (single isomer, unassigned) [Compound 192]
[1]; [4]
  IC50: 0.047 nM
[2]; replicon 1A
  IC50: 0.0011 nM
[3]; [5]
  IC50: 0.028 nM

## COC(=O)N[C@H](C(=O)N1CCC[C@H]1c1ncc(-c2ccc3c(c2)OC(c2cc4sccc4s2)n2c-3cc3cc(-c4c[nH]c([C@@H]5C[C@H]6C[C@H]6N5C(=O)[C@@H](NC(=O)OC)C(C)C)n4)ccc32)[nH]1)C(C)C (single isomer, unassigned) [Compound 717]
[1]; [6]
  IC50: 1.16 nM
[2]; HCV replicon 1A
  IC50: 0.024 nM
[3]; [7]
  IC50: 0.2 nM

## [2H]C(C)(C)C(NC(=O)OC)C(=O)N1CCC[C@H]1c1ncc(-c2cc(F)c3c(c2)OC(c2ccc(C4CC4)s2)n2c-3cc3cc(-c4cnc([C@@H]5CCCN5C(=O)[C@@H](NC(=O)OC)C(C)C)[nH]4)ccc32)[nH]1 (single isomer, unassigned) [Compound 32]
[1]; [4]
  IC50: 6.02 nM
[2]; replicon 1A
  IC50: 0.0013 nM
[3]; [5]
  IC50: 1.42 nM

## COC(=O)NC(C(=O)N1CCC[C@H]1c1ncc(-c2ccc3c(c2)cc2n3C(c3ccc(C4CC4)s3)Oc3cc(-c4cnc([C@@H]5CCCN5C(=O)[C@@H](NC(=O)OC)C(C)C)[nH]4)cc(F)c3-2)[nH]1)C1C[C@@H](C)O[C@H](C)C1 (single isomer, unassigned) [Compound 193]
[1]; [4]
  IC50: 18.6 nM
[2]; replicon 1A
  IC50: 0.0256 nM
[3]; [5]
  IC50: 4.75 nM

## COC(=O)N[C@H](C(=O)N1CCC[C@H]1c1ncc(-c2cc(F)c3c(c2)OC(c2cc(C)c(C)s2)n2c-3cc3cc(-c4cnc([C@@H]5C[C@H]6C[C@H]6N5C(=O)[C@@H](NC(=O)OC)C(C)C)[nH]4)ccc32)[nH]1)C(C)C (single isomer, unassigned) [Compound 508]
[1]; [6]
  IC50: 7.09 nM
[2]; [8]
  IC50: 0.0409 nM
[3]; [7]
  IC50: 0.608 nM

## COC(=O)NC(C(=O)N1CCC[C@H]1c1ncc(-c2ccc3c(c2)cc2n3C(c3ccc(C4CC4)s3)Oc3cc(-c4cnc([C@@H]5CCCN5C(=O)[C@@H](NC(=O)OC)C(C)C)[nH]4)cc(F)c3-2)[nH]1)C1CCO[C@@H](C)C1 (single isomer, unassigned) [Compound 355]
[1]; [4]
  IC50: 2.8 nM
[2]; replicon 1A
  IC50: 0.0019 nM
[3]; [5]
  IC50: 1.75 nM

## CCc1ccc(C2Oc3cc(-c4cnc([C@@H]5CCCN5C(=O)[C@@H](NC(=O)OC)C(C)C)[nH]4)ccc3-c3c(F)c4cc(-c5cnc([C@@H]6CCCN6C(=O)C(NC(=O)OC)C6C[C@@H](C)O[C@@H](C)C6)[nH]5)ccc4n32)s1 (single isomer, unassigned) [Compound 633]
[1]; [6]
  IC50: 0.311 nM
[2]; [8]
  IC50: 0.0013 nM
[3]; [7]
  IC50: 0.306 nM

## COC(=O)N[C@H](C(=O)N1CCC[C@H]1c1ncc(-c2ccc3c(c2)OC(c2cc4ccccc4s2)n2c-3cc3cc(-c4cnc([C@@H]5C[C@@H](F)CN5C(=O)[C@@H](NC(=O)OC)C5CCOCC5)[nH]4)ccc32)[nH]1)C(C)C (single isomer, unassigned) [Compound 626]
[1]; [6]
  IC50: 0.179 nM
[2]; [8]
  IC50: 0.00209 nM
[3]; [7]
  IC50: 0.013 nM

## CCc1ccc(C2Oc3cc(-c4cnc([C@@H]5CCCN5C(=O)[C@@H](NC(=O)OC)C(C)C)[nH]4)cc(F)c3-c3cc4cc(-c5cnc([C@@H]6C[C@@H](F)CN6C(=O)C(NC(=O)OC)C6CCOC(C)(C)C6)[nH]5)ccc4n32)s1 (single isomer, unassigned) [Compound 261]
[1]; [4]
  IC50: 9.84 nM
[2]; replicon 1A
  IC50: 0.0015 nM
[3]; [5]
  IC50: 0.043 nM

## CCc1ccc(C2Oc3cc(-c4cnc([C@@H]5CCCN5C(=O)[C@@H](NC(=O)OC)C(C)C)[nH]4)cc(C)c3-c3cc4cc(-c5cnc([C@@H]6CCCN6C(=O)C(NC(=O)OC)C6C[C@@H](C)O[C@H](C)C6)[nH]5)ccc4n32)s1 (single isomer, unassigned) [Compound 546]
[1]; [6]
  IC50: 0.0542 nM
[2]; HCV replicon 1A
  IC50: 0.0138 nM
[3]; [7]
  IC50: 0.268 nM

## CCc1ccc(C2Oc3cc(-c4cnc([C@@H]5CCCN5C(=O)[C@@H](NC(=O)OC)C(C)C)[nH]4)cc(C)c3-c3cc4cc(-c5cnc([C@@H]6CCCN6C(=O)C(NC(=O)OC)C6C[C@@H](C)O[C@@H](C)C6)[nH]5)ccc4n32)s1 (single isomer, unassigned) [Compound 544]
[1]; [6]
  IC50: 0.0319 nM
[2]; HCV replicon 1A
  IC50: 0.00833 nM
[3]; [7]
  IC50: 0.29 nM

## COC(=O)N[C@H](C(=O)N1CCC[C@H]1c1ncc(-c2cc(F)c3c(c2)OC(c2scc4c2OCCO4)n2c-3cc3cc(-c4cnc([C@@H]5CCCN5C(=O)[C@@H](NC(=O)OC)C(C)C)[nH]4)ccc32)[nH]1)C(C)C (single isomer, unassigned) [Compound 524]
[1]; [6]
  IC50: 4.64 nM
[2]; HCV replicon 1A
  IC50: 0.00766 nM
[3]; [7]
  IC50: 14.5 nM

## COC(=O)NC(C(=O)N1CCCC1c1ncc(-c2cc(F)c3c(c2)OC(c2ccc(C4CCC4)s2)n2c-3cc3cc(-c4cnc(C5CCCN5C(=O)C(NC(=O)OC)C5CC(C)OC(C)C5)[nH]4)ccc32)[nH]1)C(C)C (single isomer, unassigned) [Compound 373]
[1]; replicon 2B; Replicon Assay A; read-out: 2B IC50
  IC50: 0.156 nM
[2]; replicon 1A
  IC50: 0.001 nM
[3]; replicon 1AY93H; Replicon Assay A; read-out: 1A Y93H IC50
  IC50: 0.248 nM

## CCc1ccc(C2Oc3cc(-c4cnc([C@@H]5CCCN5C(=O)C(NC(=O)OC)C5C[C@@H](C)O[C@@H](C)C5)[nH]4)cc(F)c3-c3cc4cc(-c5cnc([C@@H]6CCCN6C(=O)[C@@H](NC(=O)OC)C(C)C)[nH]5)ccc4n32)s1 (single isomer, unassigned) [Compound 154]
[1]; [4]
  IC50: 0.55 nM
[2]; replicon 1A
  IC50: 0.0017 nM
[3]; [5]
  IC50: 0.36 nM

## COC(=O)N[C@@H](Cc1ccccc1)C(=O)N1CCC[C@H]1c1ncc(-c2ccc3c(c2)OC(c2ccc(-c4ccc(NC(=O)CCCC[C@@H]5SC[C@@H]6NC(=O)N[C@@H]65)cc4)s2)n2c-3cc3cc(-c4cnc([C@@H]5CCCN5C(=O)[C@H](Cc5ccccc5)NC(=O)OC)[nH]4)ccc32)[nH]1 (single isomer, unassigned) [Compound 385]
[1]; [4]
  IC50: 7.21 nM
[2]; replicon 1A
  IC50: 0.109 nM
[3]; [5]
  IC50: 3.11 nM

## COC(=O)N[C@H](C(=O)N1CCC[C@H]1c1ncc(-c2cc(F)c3c(c2)OC(c2sc(C4CC4)cc2F)n2c-3cc3cc(-c4cnc([C@@H]5CCCN5C(=O)[C@@H](NC(=O)OC)C(C)C)[nH]4)ccc32)[nH]1)C(C)C (single isomer, unassigned) [Compound 65]
[1]; [4]
  IC50: 3.6 nM
[2]; Hepatitis C virus, replicon 1A
  IC50: 0.0016 nM
[3]; [5]
  IC50: 3 nM

## COC(=O)N[C@H](C(=O)N1CCC[C@H]1c1ncc(-c2cc(F)c3c(c2)OC(c2ccc(CC(C)C)s2)n2c-3cc3cc(-c4cnc([C@@H]5CCCN5C(=O)[C@@H](NC(=O)OC)C(C)C)[nH]4)ccc32)[nH]1)C(C)C (single isomer, unassigned) [Compound 522]
[1]; [6]
  IC50: 0.417 nM
[2]; HCV replicon 1A
  IC50: 0.0239 nM
[3]; [7]
  IC50: 0.0776 nM

## CCc1ccc(C2Oc3cc(-c4cnc([C@@H]5CCCN5C(=O)C(NC(=O)OC)C5C[C@@H](C)O[C@@H](C)C5)[nH]4)cc(F)c3-c3cc4cc(-c5cnc([C@@H]6CCCN6C(=O)C(NC(=O)OC)C6C[C@@H](C)O[C@@H](C)C6)[nH]5)ccc4n32)s1 (single isomer, unassigned) [Compound 299]
[1]; [4]
  IC50: 0.14 nM
[2]; Hepatitis C virus, replicon 1A
  IC50: 0.0017 nM
[3]; [5]
  IC50: 0.27 nM

## COC(=O)N[C@H](C(=O)N1CCC[C@H]1c1ncc(-c2ccc3c(c2)OC(c2cc4ccccc4s2)n2c-3cc3cc(-c4cnc([C@@H]5C[C@H]6C[C@H]6N5C(=O)[C@@H](NC(=O)OC)C(C)C)[nH]4)ccc32)[nH]1)C(C)C (single isomer, unassigned) [Compound 609]
[1]; [6]
  IC50: 0.995 nM
[2]; HCV replicon 1A
  IC50: 0.0074 nM
[3]; [7]
  IC50: 18 nM
